{"source": "patent US20260069582A1", "about": "“POLYMORPH OF GLP-1R AGONIST COMPOUND, PREPARATION METHOD THEREFOR, AND USE THEREOF” (MINDRANK THERAPEUTICS (SUZHOU) NEW DRUG RESEARCH AND …, priority 2022, published 2026)", "key": {"[1]": {"experiment": "Drug absorption experiment in SD rats, intravenous administration", "type": "in vivo", "conditions": "rat, plasma, tail vein injection", "description": "Blood samples were collected at different time points before and after administration and then separated to prepare plasma. The concentration of the drug in plasma was determined by liquid chromatography-tandem mass spectrometry, and pharmacokinetic parameters were calculated using a non-compartmental model."}, "[2]": {"experiment": "Solid state stability study (purity by HPLC and crystal form change)", "type": "physicochemical", "conditions": "for Initial purity (%): before storage, HPLC"}, "[3]": {"experiment": "Drug absorption experiment in SD rats, intragastric administration", "type": "in vivo", "conditions": "for absolute bioavailability: after dose correction, based on AUC0-t", "description": "Blood samples were collected at different time points after administration and then separated to prepare plasma. The concentration of the drug in plasma was determined by liquid chromatography-tandem mass spectrometry, and pharmacokinetic parameters were calculated using a non-compartmental model."}, "[4]": {"experiment": "Equilibrium solubility study in biological media", "type": "physicochemical", "conditions": "37 °C, thermodynamic from solid, 37±2° C.", "description": "In the tests, the solids were suspended in corresponding buffers to formulate suspensions (˜10 mg/mL), and the suspensions were mixed at 37±2° C. After 24 h, samples of the suspensions were taken. The supernatant was filtered, and the concentration was determined."}, "[5]": {"experiment": "Hygroscopic behavior test by dynamic vapor sorption (DVS)", "type": "physicochemical", "conditions": "25° C.", "excerpt": "The experimental method for characterizing an acid salt or a base salt of compound I by dynamic vapor sorption (DVS) was as follows: A small amount of a powder of a polymorph of compound I was taken and placed into a precise sample tray that matches the instrument. After the sample was loaded, the sample tray was sent into the instrument for analysis. In this patent, the instrument model used in the dynamic vapor sorption analysis was Intrinsic PLUS; the experimental parameter was set as follows: A constant temperature of 25° C. was set; the mass percent change rate per unit time (dm/dt)=0.02%/min was used as a criterion for determining that a balance is achieved; the program humidity change cycle was set as follows: The initial relative humidity was 0%, and the endpoint relative humidity was 90%."}, "[6]": {"experiment": "Transformation of metastable crystal forms on drying or standing (XRPD)", "type": "physicochemical", "description": "After being stirred at room temperature for about 3 d, the mixture was filtered under vacuum. The resulting filter cake was metastable crystal form J of compound I. The product was analyzed and characterized by XRPD (FIG. 28).\nThe mixture was stirred at room temperature for 16 h and filtered. The resulting filter cake was metastable crystal form K of compound I. The product was analyzed and characterized by XRPD (FIG. 29).\nThe mixture was stirred at room temperature for about 3 d and filtered. The filter cake was dried at 50° C. for 16 h to give metastable crystal form L of compound I. The product was analyzed and characterized by XRPD (FIG. 30).\nThe mixture was stirred at 5° C. for about 1 d and filtered. The resulting filter cake was metastable crystal form M of compound I. The product was analyzed and characterized by XRPD (FIG. 31).\nCrystal form C of compound I was heated to 80° C. at 10° C./min to give metastable crystal form N of compound I. The product was analyzed and characterized by XRPD (FIG. 32)."}, "[7]": {"conditions": "25° C./60% RH, 7 days (long-term storage)"}, "[8]": {"conditions": "40° C./75% RH, 7 days (accelerated)"}, "[9]": {"conditions": "60° C., RH<30%, 7 days (high-temperature)"}}, "note": "Structures can show the parent of a compound that is named as a salt. Where two headings read alike, the source gives them in different places.", "data": [{"molecule": "O=C(O)c1ccc2nc(CN3CCC(Oc4cccc(COc5ccc(Cl)cc5F)n4)CC3)n(C[C@@H]3CCO3)c2c1", "note": "[Crystal form A of compound I, (S)-2-((4-((6-((4-chloro-2-fluorophenoxy)methyl)pyridin-2-yl)oxy)piperidin-1-yl)methyl)-1-(oxetan-2-ylmethyl)-1H-benzo[d]imidazole-6-carboxylic acid tromethamine salt (1:1)]", "values": [{"measurement": "AUC(0-t)", "setting": "[1]; 2 mg/kg", "result": 2440, "unit": "ng·h/mL"}, {"measurement": "Cmax", "setting": "[1]; 2 mg/kg", "result": 7640, "unit": "ng/mL"}, {"measurement": "half-life", "setting": "[1]; 2 mg/kg", "result": 1.88, "unit": "h"}, {"measurement": "Purity (%)", "setting": "[2]; [7]", "result": 99.18, "unit": "%"}, {"measurement": "Purity (%)", "setting": "[2]; [8]", "result": 99.17, "unit": "%"}, {"measurement": "Purity (%)", "setting": "[2]; [9]", "result": 98.83, "unit": "%"}, {"measurement": "Initial purity (%)", "setting": "[2]", "result": 99.30, "unit": "%"}, {"measurement": "AUC(0-t)", "setting": "[3]; 5 mg/kg", "result": 2670, "unit": "ng·h/mL"}, {"measurement": "Cmax", "setting": "[3]; 5 mg/kg", "result": 847, "unit": "ng/mL"}, {"measurement": "Tmax", "setting": "[3]; 5 mg/kg", "result": 0.25, "unit": "h"}, {"measurement": "t1/2", "setting": "[3]; 5 mg/kg", "result": 3.59, "unit": "h"}, {"measurement": "absolute bioavailability", "setting": "[3]", "result": 43.7, "unit": "%"}, {"measurement": "solubility thermodynamic at 24 h", "setting": "[4]; FaSSIF", "result": 110, "unit": "µg/mL"}, {"measurement": "solubility thermodynamic at 24 h", "setting": "[4]; FeSSIF", "result": 450, "unit": "µg/mL"}, {"measurement": "solubility thermodynamic at 24 h", "setting": "[4]; water, H2O", "result": 440, "unit": "µg/mL"}, {"measurement": "Sample weight change at 80% RH (%)", "setting": "[5]; DVS, 80% RH", "result": 1.03, "unit": "%"}, {"measurement": "Whether the crystal form is changed", "setting": "[5]; after DVS, 0-90% RH", "result": "No"}]}, {"molecule": "O=C(O)c1ccc2nc(CN3CCC(Oc4cccc(COc5ccc(Cl)cc5F)n4)CC3)n(C[C@@H]3CCO3)c2c1", "note": "[Crystal form B of compound I, (S)-2-((4-((6-((4-chloro-2-fluorophenoxy)methyl)pyridin-2-yl)oxy)piperidin-1-yl)methyl)-1-(oxetan-2-ylmethyl)-1H-benzo[d]imidazole-6-carboxylic acid tromethamine salt (1:1)]", "values": [{"measurement": "Purity (%)", "setting": "[2]; [7]", "result": 98.74, "unit": "%"}, {"measurement": "Purity (%)", "setting": "[2]; [8]", "result": 98.73, "unit": "%"}, {"measurement": "Purity (%)", "setting": "[2]; [9]", "result": 98.67, "unit": "%"}, {"measurement": "Initial purity (%)", "setting": "[2]", "result": 98.80, "unit": "%"}]}, {"molecule": "O=C(O)c1ccc2nc(CN3CCC(Oc4cccc(COc5ccc(Cl)cc5F)n4)CC3)n(C[C@@H]3CCO3)c2c1", "note": "[Crystal form I of compound I, (S)-2-((4-((6-((4-chloro-2-fluorophenoxy)methyl)pyridin-2-yl)oxy)piperidin-1-yl)methyl)-1-(oxetan-2-ylmethyl)-1H-benzo[d]imidazole-6-carboxylic acid tromethamine salt (1:1)]", "values": [{"measurement": "Purity (%)", "setting": "[2]; [7]", "result": 98.41, "unit": "%"}, {"measurement": "Purity (%)", "setting": "[2]; [8]", "result": 98.47, "unit": "%"}, {"measurement": "Purity (%)", "setting": "[2]; [9]", "result": 98.48, "unit": "%"}, {"measurement": "Initial purity (%)", "setting": "[2]", "result": 98.44, "unit": "%"}]}, {"molecule": "O=C(O)c1ccc2nc(CN3CCC(Oc4cccc(COc5ccc(Cl)cc5F)n4)CC3)n(C[C@@H]3CCO3)c2c1", "note": "[Free form of compound I, (S)-2-((4-((6-((4-chloro-2-fluorophenoxy)methyl)pyridin-2-yl)oxy)piperidin-1-yl)methyl)-1-(oxetan-2-ylmethyl)-1H-benzo[d]imidazole-6-carboxylic acid]", "values": [{"measurement": "AUC(0-t)", "setting": "[1]; 1 mg/kg", "result": 1280, "unit": "ng·h/mL"}, {"measurement": "Cmax", "setting": "[1]; 1 mg/kg", "result": 3200, "unit": "ng/mL"}, {"measurement": "half-life", "setting": "[1]; 1 mg/kg", "result": 3.89, "unit": "h"}, {"measurement": "Purity (%)", "setting": "[2]; [7]", "result": 98.94, "unit": "%"}, {"measurement": "Purity (%)", "setting": "[2]; [8]", "result": 95.86, "unit": "%"}, {"measurement": "Purity (%)", "setting": "[2]; [9]", "result": 89.15, "unit": "%"}, {"measurement": "Initial purity (%)", "setting": "[2]", "result": 98.98, "unit": "%"}, {"measurement": "half-life", "setting": "[3]; SD, rat, plasma, po, 5 mg/kg", "result": 2.84, "unit": "h"}, {"measurement": "AUC(0-t)", "setting": "[3]; SD, rat, plasma, po, 5 mg/kg, read-out: AUC0-t", "result": 1400, "unit": "ng·h/mL"}, {"measurement": "Cmax", "setting": "[3]; SD, rat, plasma, po, 5 mg/kg, read-out: Cmax", "result": 600, "unit": "ng/mL"}, {"measurement": "Tmax", "setting": "[3]; SD, rat, plasma, po, 5 mg/kg, read-out: Tmax", "result": 0.5, "unit": "h"}, {"measurement": "absolute bioavailability", "setting": "[3]", "result": 21.8, "unit": "%"}]}, {"molecule": "O=C(O)c1ccc2nc(CN3CCC(Oc4cccc(COc5ccc(Cl)cc5F)n4)CC3)n(C[C@@H]3CCO3)c2c1", "note": "[crystal form J, (S)-2-((4-((6-((4-chloro-2-fluorophenoxy)methyl)pyridin-2-yl)oxy)piperidin-1-yl)methyl)-1-(oxetan-2-ylmethyl)-1H-benzo[d]imidazole-6-carboxylic acid tromethamine salt (1:1)]", "values": [{"measurement": "Crystal form transformation", "setting": "[6]; dried at 40° C. for 16 h", "result": "transformed to crystal form A"}]}, {"molecule": "O=C(O)c1ccc2nc(CN3CCC(Oc4cccc(COc5ccc(Cl)cc5F)n4)CC3)n(C[C@@H]3CCO3)c2c1", "note": "[crystal form K, (S)-2-((4-((6-((4-chloro-2-fluorophenoxy)methyl)pyridin-2-yl)oxy)piperidin-1-yl)methyl)-1-(oxetan-2-ylmethyl)-1H-benzo[d]imidazole-6-carboxylic acid tromethamine salt (1:1)]", "values": [{"measurement": "Crystal form transformation", "setting": "[6]; dried at 50° C. for 24 h", "result": "transformed to crystal form A"}]}, {"molecule": "O=C(O)c1ccc2nc(CN3CCC(Oc4cccc(COc5ccc(Cl)cc5F)n4)CC3)n(C[C@@H]3CCO3)c2c1", "note": "[crystal form L, (S)-2-((4-((6-((4-chloro-2-fluorophenoxy)methyl)pyridin-2-yl)oxy)piperidin-1-yl)methyl)-1-(oxetan-2-ylmethyl)-1H-benzo[d]imidazole-6-carboxylic acid tromethamine salt (1:1)]", "values": [{"measurement": "Crystal form transformation", "setting": "[6]; dried under vacuum at room temperature for about 16 h", "result": "transformed to crystal form D"}, {"measurement": "Crystal form transformation", "setting": "[6]; let stand in an open flask at room temperature for about 16 h", "result": "transformed to crystal form D"}]}, {"molecule": "O=C(O)c1ccc2nc(CN3CCC(Oc4cccc(COc5ccc(Cl)cc5F)n4)CC3)n(C[C@@H]3CCO3)c2c1", "note": "[crystal form N, (S)-2-((4-((6-((4-chloro-2-fluorophenoxy)methyl)pyridin-2-yl)oxy)piperidin-1-yl)methyl)-1-(oxetan-2-ylmethyl)-1H-benzo[d]imidazole-6-carboxylic acid tromethamine salt (1:1)]", "values": [{"measurement": "Crystal form transformation", "setting": "[6]; dried at 50° C. for 16 h", "result": "transformed to crystal form B"}]}]}
